From the supplement of paper PMC10307832 come the findings set out here.

Experiment in all cases: relative viability (nuclei count vs DMSO), 5 days (fraction); higher = more cells survive
Compound in the assay “Vemurafenib + Phenformin”: CCCS(=O)(=O)Nc1ccc(F)c(C(=O)c2c[nH]c3ncc(-c4ccc(Cl)cc4)cc23)c1F [Vemurafenib] + N=C(N)NC(=N)NCCc1ccccc1 [Phenformin] (partner 250 µM)
The procedure, abridged:
(§1)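 Lung cancer cell lines were seeded in 1536-well plates and dosed by pin tool the next day, with either a single drug or a fixed anchor-drug dose combined with five library-drug doses (not always all listed) spaced in √10 steps. Five days later, one step fixed the cells and stained their nuclei (final 0.05% Triton X-100, 1% formaldehyde, 1 ug/ml Hoechst), and nuclei were counted on 4× images. Relative viability is the nuclei count in treated wells divided by the count in vehicle wells, and each value is the median of duplicate plates.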

Compound in the assay “OSI-027 + Pemetrexed”: COc1cccc2cc(-c3nc([C@H]4CC[C@H](C(=O)O)CC4)n4ncnc(N)c34)[nH]c12 [OSI-027] + Nc1nc2[nH]cc(CCc3ccc(C(=O)N[C@@H](CCC(=O)O)C(=O)O)cc3)c2c(=O)[nH]1 [Pemetrexed] (partner 0.2 µM)
The procedure, abridged: as §1

Compound in the assay “Alpelisib + Vorinostat”: Cc1nc(NC(=O)N2CCC[C@H]2C(N)=O)sc1-c1ccnc(C(C)(C)C(F)(F)F)c1 [Alpelisib] + O=C(CCCCCCC(=O)Nc1ccccc1)NO [Vorinostat] (partner 1 µM)
The procedure, abridged:
as §1

Compound in the assay “Alpelisib + Olaparib”: Cc1nc(NC(=O)N2CCC[C@H]2C(N)=O)sc1-c1ccnc(C(C)(C)C(F)(F)F)c1 [Alpelisib] + O=C(c1cc(Cc2n[nH]c(=O)c3ccccc23)ccc1F)N1CCN(C(=O)C2CC2)CC1 [Olaparib] (partner 8 µM)
The procedure, abridged:
as §1

As for UMC-11, the relative viability with Vemurafenib + Phenformin (first compound 0.03162 µM) is 0.29; with Vemurafenib + Phenformin (first compound 0.1 µM) it was 0.315; with Vemurafenib + Phenformin (first compound 0.3162 µM), 0.227; with Vemurafenib + Phenformin (first compound 1 µM) it was 0.315; with OSI-027 + Pemetrexed (first compound 0.01 µM) it was 0.994; with OSI-027 + Pemetrexed (first compound 0.03162 µM) it was 0.77. In addition, the relative viability came to 0.658 with OSI-027 + Pemetrexed (first compound 0.1 µM); 0.585 in the assay with OSI-027 + Pemetrexed (first compound 0.3162 µM); 0.444 in the assay with OSI-027 + Pemetrexed (first compound 1 µM); 0.374 in the assay with Alpelisib + Vorinostat (first compound 0.04 µM); 0.31 in the assay with Alpelisib + Vorinostat (first compound 0.1265 µM); 0.403 with Alpelisib + Vorinostat (first compound 0.4 µM). Besides, the relative viability amounted to 0.344 with Alpelisib + Vorinostat (first compound 1.265 µM); 0.31 in the assay with Alpelisib + Vorinostat (first compound 4 µM); 0.362 in the assay with Alpelisib + Olaparib (first compound 0.04 µM); 0.328 with Alpelisib + Olaparib (first compound 0.1265 µM); 0.389 in the assay with Alpelisib + Olaparib (first compound 0.4 µM); 0.346 with Alpelisib + Olaparib (first compound 1.265 µM). For the same cell line, the relative viability with Alpelisib + Olaparib (first compound 4 µM) is 0.315.
